Where two headings read alike, the source gives them in different places.
Tests used:
[1] = test system: Key Broadleaf Weed and Crop Species; assay: Post-emergent Test II herbicidal activity (Table 5); type: in vivo; details: post-emergence, 336 h, 14 days after application; for pest or weed control at 70 g/ha: application rate 70 g ai/ha; for pest or weed control at 140 g/ha: application rate 140 g ai/ha
Summary of the method: (§1)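 Percent injury, 0 (none) to 100 (complete kill), was judged visually 14 d after spraying young plants at the first or second true leaf stage with compound in an acetone/DMSO aqueous carrier at 187 L/ha. Plants were kept in a greenhouse at 23–29 °C by day.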

[2] = test system: Key Grass and Sedge Weeds as well as Grass Crops; assay: Post-emergent Test II herbicidal activity (Table 6); type: in vivo; details: post-emergence, 336 h
Summary of the method: as §1

[3] = ABUTH: velvetleaf (Abutilon theophrasti), read-out: Visual Growth Reduction (%) 14 Days After Application, ABUTH
[4] = AMARE: redroot pigweed (Amaranthus retroflexus), read-out: Visual Growth Reduction (%) 14 Days After Application, AMARE
[5] = BRSNN: oilseed-rape, canola (Brassica napus), read-out: Visual Growth Reduction (%) 14 Days After Application, BRSNN
[6] = CHEAL: lambsquarters (Chenopodium album), read-out: Visual Growth Reduction (%) 14 Days After Application, CHEAL
[7] = EPHHL: wild poinsettia (Euphorbia heterophylla), read-out: Visual Growth Reduction (%) 14 Days After Application, EPHHL
[8] = HELAN: sunflower (Helianthus annuus), read-out: Visual Growth Reduction (%) 14 Days After Application, HELAN
[9] = VIOTR: wild pansy (Viola tricolor), read-out: Visual Growth Reduction (%) 14 Days After Application, VIOTR
[10] = CYPES: yellow nutsedge (Cyperus esculentus), 70 g ai/ha, read-out: Visual Growth Reduction (%) 14 Days After Application, CYPES
[11] = CYPES: yellow nutsedge (Cyperus esculentus), 140 g ai/ha, read-out: Visual Growth Reduction (%) 14 Days After Application, CYPES
[12] = DIGSA: crabgrass (Digitaria sanguinalis), 70 g ai/ha, read-out: Visual Growth Reduction (%) 14 Days After Application, DIGSA
[13] = DIGSA: crabgrass (Digitaria sanguinalis), 140 g ai/ha, read-out: Visual Growth Reduction (%) 14 Days After Application, DIGSA
[14] = ECHCG: barnyardgrass (Echinochloa crus-galli), 70 g ai/ha, read-out: Visual Growth Reduction (%) 14 Days After Application, ECHCG
[15] = ECHCG: barnyardgrass (Echinochloa crus-galli), 140 g ai/ha, read-out: Visual Growth Reduction (%) 14 Days After Application, ECHCG
[16] = ORYSA: rice (Oryza sativa), crop, 70 g ai/ha, read-out: Visual Growth Reduction (%) 14 Days After Application, ORYSA
[17] = ORYSA: rice (Oryza sativa), crop, 140 g ai/ha, read-out: Visual Growth Reduction (%) 14 Days After Application, ORYSA
[18] = SETFA: giant foxtail (Setaria faberi), 70 g ai/ha, read-out: Visual Growth Reduction (%) 14 Days After Application, SETFA
[19] = SETFA: giant foxtail (Setaria faberi), 140 g ai/ha, read-out: Visual Growth Reduction (%) 14 Days After Application, SETFA
[20] = SORVU: grain sorghum (Sorghum vulgare), 70 g ai/ha, read-out: Visual Growth Reduction (%) 14 Days After Application, SORVU
[21] = SORVU: grain sorghum (Sorghum vulgare), 140 g ai/ha, read-out: Visual Growth Reduction (%) 14 Days After Application, SORVU
[22] = TRZSS (wheat, Triticum aestivum), crop, 70 g ai/ha, read-out: Visual Growth Reduction (%) 14 Days After Application, TRZSS
[23] = TRZSS (wheat, Triticum aestivum), crop, 140 g ai/ha, read-out: Visual Growth Reduction (%) 14 Days After Application, TRZSS
[24] = ZEAMX: maize, corn (Zea mays), crop, 70 g ai/ha, read-out: Visual Growth Reduction (%) 14 Days After Application, ZEAMX
[25] = ZEAMX: maize, corn (Zea mays), crop, 140 g ai/ha, read-out: Visual Growth Reduction (%) 14 Days After Application, ZEAMX

melting point	SMILES	pest or weed control at 70 g/ha [1, 3] [%]	pest or weed control at 140 g/ha [1, 3] [%]	pest or weed control at 70 g/ha [1, 4] [%]	pest or weed control at 140 g/ha [1, 4] [%]	pest or weed control at 70 g/ha [1, 5] [%]	pest or weed control at 140 g/ha [1, 5] [%]	pest or weed control at 70 g/ha [1, 6] [%]	pest or weed control at 140 g/ha [1, 6] [%]	pest or weed control at 70 g/ha [1, 7] [%]	pest or weed control at 140 g/ha [1, 7] [%]	pest or weed control at 70 g/ha [1, 8] [%]	pest or weed control at 140 g/ha [1, 8] [%]	pest or weed control at 70 g/ha [1, 9] [%]	pest or weed control at 140 g/ha [1, 9] [%]	pest or weed control at 70 g/ha [2, 10] [%]	pest or weed control at 140 g/ha [2, 11] [%]	pest or weed control at 70 g/ha [2, 12] [%]	pest or weed control at 140 g/ha [2, 13] [%]	pest or weed control at 70 g/ha [2, 14] [%]	other results
131 °C	COC(=O)c1nc(-c2ccc(F)cc2)c(F)c(N)c1Cl [Compound 204]	95 to 100	95 to 100	95 to 100	95 to 100	85 to 94	95 to 100	95 to 100	95 to 100	95 to 100	95 to 100	95 to 100	95 to 100	75 to 84	95 to 100	85 to 94	85 to 94	60 to 74	60 to 74	95 to 100	pest or weed control at 140 g/ha [2, 15]: 95 to 100%; pest or weed control at 70 g/ha [2, 16]: 0 to 29%; pest or weed control at 140 g/ha [2, 17]: 0 to 29%; pest or weed control at 70 g/ha [2, 18]: 0 to 29%; pest or weed control at 140 g/ha [2, 19]: 45 to 59%; pest or weed control at 70 g/ha [2, 20]: 75 to 84%; pest or weed control at 140 g/ha [2, 21]: 85 to 94%; pest or weed control at 70 g/ha [2, 22]: 45 to 59%; pest or weed control at 140 g/ha [2, 23]: 60 to 74%; pest or weed control at 70 g/ha [2, 24]: 75 to 84%; pest or weed control at 140 g/ha [2, 25]: 75 to 84%
157 to 160 °C (dec.)	C#Cc1ccc(-c2nc(C(=O)O)c(Cl)c(N)c2F)cc1F [Compound 71]	0 to 29	45 to 59	60 to 74	75 to 84	45 to 59	45 to 59	85 to 94	85 to 94	95 to 100	95 to 100	60 to 74	75 to 84	0 to 29	0 to 29	0 to 29	0 to 29	60 to 74	45 to 59	85 to 94	pest or weed control at 140 g/ha [2, 15]: 85 to 94%; pest or weed control at 70 g/ha [2, 16]: 0 to 29%; pest or weed control at 140 g/ha [2, 17]: 0 to 29%; pest or weed control at 70 g/ha [2, 18]: 60 to 74%; pest or weed control at 140 g/ha [2, 19]: 60 to 74%; pest or weed control at 70 g/ha [2, 20]: 30 to 44%; pest or weed control at 140 g/ha [2, 21]: 45 to 59%; pest or weed control at 70 g/ha [2, 22]: 30 to 44%; pest or weed control at 140 g/ha [2, 23]: 45 to 59%; pest or weed control at 70 g/ha [2, 24]: 95 to 100%; pest or weed control at 140 g/ha [2, 25]: 95 to 100%
113 to 115 °C	Nc1c(F)c(-c2ccc(OC(F)F)c(F)c2F)nc(C(=O)O)c1Cl [Compound 19]	0 to 29	0 to 29	0 to 29	0 to 29	0 to 29	60 to 74	0 to 29	0 to 29	0 to 29	30 to 44	75 to 84	75 to 84	0 to 29	0 to 29	–	–	–	–	–	pest or weed control at 70 g/ha ([2]; Triticum aestivum, TRZSS (wheat), application rate 70 g ai/ha, read-out: Visual Growth Reduction (%) 14 Days After Application, TRZSS): 0 to 29%; pest or weed control at 140 g/ha ([2]; Triticum aestivum, TRZSS (wheat), application rate 140 g ai/ha, read-out: Visual Growth Reduction (%) 14 Days After Application, TRZSS): 0 to 29%; pest or weed control at 70 g/ha ([2]; CYPES: yellow nutsedge (Cyperus esculentus), application rate 70 g ai/ha, read-out: Visual Growth Reduction (%) 14 Days After Application, CYPES): 0 to 29%; pest or weed control at 140 g/ha ([2]; CYPES: yellow nutsedge (Cyperus esculentus), application rate 140 g ai/ha, read-out: Visual Growth Reduction (%) 14 Days After Application, CYPES): 0 to 29%; pest or weed control at 70 g/ha ([2]; DIGSA: crabgrass (Digitaria sanguinalis), application rate 70 g ai/ha, read-out: Visual Growth Reduction (%) 14 Days After Application, DIGSA): 0 to 29%; pest or weed control at 140 g/ha ([2]; DIGSA: crabgrass (Digitaria sanguinalis), application rate 140 g ai/ha, read-out: Visual Growth Reduction (%) 14 Days After Application, DIGSA): 0 to 29%; pest or weed control at 70 g/ha ([2]; ECHCG: barnyardgrass (Echinochloa crus-galli), application rate 70 g ai/ha, read-out: Visual Growth Reduction (%) 14 Days After Application, ECHCG): 0 to 29%; pest or weed control at 140 g/ha ([2]; ECHCG: barnyardgrass (Echinochloa crus-galli), application rate 140 g ai/ha, read-out: Visual Growth Reduction (%) 14 Days After Application, ECHCG): 0 to 29%; pest or weed control at 70 g/ha ([2]; ORYSA: rice (Oryza sativa), application rate 70 g ai/ha, read-out: Visual Growth Reduction (%) 14 Days After Application, ORYSA): 0 to 29%; pest or weed control at 140 g/ha ([2]; ORYSA: rice (Oryza sativa), application rate 140 g ai/ha, read-out: Visual Growth Reduction (%) 14 Days After Application, ORYSA): 0 to 29%; pest or weed control at 70 g/ha ([2]; SETFA: giant foxtail (Setaria faberi), application rate 70 g ai/ha, read-out: Visual Growth Reduction (%) 14 Days After Application, SETFA): 0 to 29%; pest or weed control at 140 g/ha ([2]; SETFA: giant foxtail (Setaria faberi), application rate 140 g ai/ha, read-out: Visual Growth Reduction (%) 14 Days After Application, SETFA): 0 to 29%; pest or weed control at 70 g/ha ([2]; SORVU: grain sorghum (Sorghum vulgare), application rate 70 g ai/ha, read-out: Visual Growth Reduction (%) 14 Days After Application, SORVU): 0 to 29%; pest or weed control at 140 g/ha ([2]; SORVU: grain sorghum (Sorghum vulgare), application rate 140 g ai/ha, read-out: Visual Growth Reduction (%) 14 Days After Application, SORVU): 0 to 29%; pest or weed control at 70 g/ha ([2]; ZEAMX: maize, corn (Zea mays), application rate 70 g ai/ha, read-out: Visual Growth Reduction (%) 14 Days After Application, ZEAMX): 0 to 29%; pest or weed control at 140 g/ha ([2]; ZEAMX: maize, corn (Zea mays), application rate 140 g ai/ha, read-out: Visual Growth Reduction (%) 14 Days After Application, ZEAMX): 0 to 29%

Source: patent publication US9113629B2, “4-amino-6-(4-substituted-phenyl)-picolinates and 6-amino-2-(4-substituted-phenyl)-pyrimidine-4-carboxylates and their use as herbicides” (DOW AGROSCIENCES LLC, priority 2013, dated 2015)
